From patent US4448730A, “Hydroxybenzohydroxamic acids, benzamides and esters and related compounds as ribonucleotide reductase inhibitors” (priority 1982, dated 1984)
Several values for one entry are separate records, joined by “and”; a condition that tells them apart may be missing. Equal values may be shown once. Read-outs that look alike come from different tables or passages of the source.

Key:
[1] = system: LX-1 human lung xenograft; experiment: Inhibition of growth of LX-1 human lung xenograft; type: in vivo, mice
Text: (§1) The same two compounds were effective in inhibiting the growth of the following transplanted tumors--B16 melanoma, M-1 human breast xenograft, LX-1 human lung xenograft, CD8F mammary tumor and colon 38 tumor--as follows: […]

[2] = system: colon 38 tumor; experiment: Inhibition of growth of colon tumor C8 (colon 38); type: in vivo, mice
Text: as §1

[3] = system: L-5563 lymphoma; experiment: Activity vs. L-5563 lymphoma (Table 6); conditions: 200 mg/kg; once or twice daily for 9-10 days
Description: (§3) All compounds were administered once or twice daily for 9-10 days starting 24 hours after inoculation with the tumor.

[4] = system: CA-755 adenocarcinoma; experiment: Activity vs. CA-755 adenocarcinoma (Table 7); type: in vivo, mice; conditions: once or twice daily for 9-10 days
Description: as §3

[5] = system: L-1210 Leukemia; type: in vivo, mice
Description: In a series of studies against L-1210 leukemia, in addition to those studies set forth in Table 2 and 4, 3,4-dihydroxybenzohydroxamic acid gave the following increases in survival times at the dose levels specified. Drug was administered daily for nine days.
Similar data for 3,4,5-trihydroxybenzohydroxamic acid are as follows: […]

[6] = system: B16 melanoma; experiment: B16 melanoma, increase in survival; type: in vivo, mice
Text: as §1

[7] = biological target: T1, ribonucleotide reductase (Rattus norvegicus, UniProt Q4KLN6); experiment: Inhibition of ribonucleotide reductase (conversion of CDP to dCDP), enzyme partially purified from Novikoff hepatoma; type: biochemical
T1 construct: partially purified from Novikoff hepatoma; from tissue; host or cells: Novikoff hepatoma (rat tumour), partially purified enzyme
T1 sequence (Q4KLN6 1-390): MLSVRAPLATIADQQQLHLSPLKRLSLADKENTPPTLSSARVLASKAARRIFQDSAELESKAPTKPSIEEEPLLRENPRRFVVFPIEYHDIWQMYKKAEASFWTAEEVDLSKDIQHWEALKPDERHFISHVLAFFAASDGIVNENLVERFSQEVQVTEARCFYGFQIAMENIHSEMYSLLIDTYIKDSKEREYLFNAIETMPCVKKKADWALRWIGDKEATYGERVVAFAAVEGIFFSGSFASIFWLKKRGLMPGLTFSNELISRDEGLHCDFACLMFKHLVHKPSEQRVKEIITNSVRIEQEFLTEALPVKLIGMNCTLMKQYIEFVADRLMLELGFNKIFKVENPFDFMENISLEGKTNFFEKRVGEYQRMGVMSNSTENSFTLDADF
Text: (§2) Table 2 gives ribonucleotide reductase data for certain compounds of formula I. In the table, column 1 gives the substitution pattern in the benzene ring, column 2, the R^1 group, column 3, the ID50 (inhibitory dose in micromolar concentration which inhibits ribonucleotide reductase by 50%), column 4, the average percent (± standard error) increase in the life span (ILS) of 8 treated mice inoculated with L1210 leukemia compared with 8 control mice also inoculated with L1210. The daily dose level of the drug which was administered for 8 days is indicated in column 5. Table 3 gives the relative potency of the compounds represented by formula I above as inhibitors of ribonucleotide reductase compared to hydroxyurea whose potency was given an arbitrary value of 1.0. In table 3, column 1 gives the name of the compound and column 2 the relative inhibitory potency of each of the compounds of column 1.
In the above determination of ID50 's in Table 3, ribonucleotide reductase is partially purified from Novikoff hepatoma by a procedure similar to that set forth by Elford et al. J. Biol. Chem. 245, 5228 (1970). The activity of the enzyme was measured by a slightly modified assay procedure originally developed by Reichard et al. id, 236, 1150 […]. This procedure measures the conversion of CDP to dCDP. The assay mixture (0.34 ml.) contains 3 μCi of [^3 H] CDP (specific activity […]), 3.3 μmole ATP, 5.9 μmoles magnesium chloride, 8.8 μmoles Hepes buffer at pH=7.5, 15 μmoles dithiothreitol and enzyme protein between 0.4 and 1.3 mg. Incubation was provided for forty minutes at 30° C. Ion exchange chromatography employing Dowex 50 (H^+) resin is used to separate the product from the substrate. The inhibitors were dissolved in water and a mixture of water and up to 1 % ethanol or 2% dimethylsulfoxide, neither one of which inhibited the enzyme at these concentrations. Each inhibitor was tested at a minimum of three concentrations and the active compounds reassayed at least one additional time. ID50 's in μmoles were estimated from graphs summarizing results for each compound.

[8] = system: L-1210 Leukemia; type: in vivo, mice; conditions: once or twice daily for 9-10 days
Description: as §3

[9] = system: L-1210 Leukemia; experiment: Direct side-by-side comparison with L-1210 leukemia; type: in vivo, mice
Text: In a direct side-by-side comparison with L-1210 leukemia, the following results were obtained.

[10] = system: L1210 leukemia; experiment: L1210 leukemia in mice, increase in life span (Table 2); type: in vivo; conditions: Mus musculus, L1210, 192 h; 600 mg/kg daily for 8 days; read-out: ILS, average percent (± standard error) increase in life span
Text: As stated above, the compounds represented by formula I above have the ability to inhibit ribonucleotide reductase, an enzyme involved in the reductive conversion of ribonucleotides to deoxyribonucleotides. This enzymatic reaction is a rate controlling step in the biosynthetic pathway leading to DNA and cell replication. In general, the ribonucleotide reductase level is closely correlated with cellular replication.
as §2

[11] = system: CX-1 colon xenograft; experiment: Activity against CX-1 colon xenograft; type: in vivo
Description: In addition, the compound 3,4-dihydroxybenzenehydroxamic acid was active against CX-1 colon xenograft using the following protocol:
0% tumor inhibition at 800 mg/kg dose level every fourth day,
3,4,5-trihydroxybenzohydroxamic acid gave the following results against the same tumor using the same protocol.

[12] = system: CD8F mammary tumor; experiment: Inhibition of growth of CD8F mammary tumor; type: in vivo
Text: as §1

[13] = system: P388 Leukemia; experiment: Activity vs. P388 Leukemia (Table 8); type: in vivo, mice; conditions: once or twice daily for 9-10 days
Description: as §3

[14] = system: L-1210 Leukemia; type: in vivo, mice; remark: listed apart in the source
Text: The above data clearly show the enhanced anti-tumor activity of trihydroxybenzohydroxamic acid where the hydroxy groups are vicinal but no hydroxyl is ortho. Similar data are available for the vicinal dihydroxybenzohydroxamic acids with and without an ortho-hydroxy substituent in an L-1210 leukemic test in mice as follows: […]

[15] = system: Lewis Lung; experiment: Activity vs. Lewis Lung (Table 5); type: in vivo, mice; conditions: once or twice daily for 9-10 days
Description: as §3

[16] = system: DNA synthesis in Ehrlich ascites tumor cells; conditions: Gale and Hynes 1968; in vitro; cited from earlier work
[17] = system: RNA and protein synthesis in Ehrlich ascites tumor cells; conditions: Gale and Hynes 1968; cited from earlier work

O=C(NO)c1ccc(O)c(O)c1 [3,4-dihydroxybenzohydroxamic acid]
inhibition ([1]; 200 mg/kg): 0% | inhibition ([1]; 400 mg/kg): 26% | inhibition ([1]; 800 mg/kg): 27% | inhibition ([2]; 50 mg/kg): 12% | inhibition ([2]; 100 mg/kg): 8% | inhibition ([2]; 200 mg/kg): 15% | inhibition ([2]; 400 mg/kg): 52% | % inhibition [3]: 24% | % inhibition ([4]; 100 mg/kg): 16% | % inhibition ([4]; 200 mg/kg): 25% and 36% | % inhibition ([4]; 300 mg/kg): 52% | toxic (in column % inhibition) ([4]; 300 mg/kg): toxic | % increase in survival ([5]; 25 mg/kg daily for nine days): 15% | % increase in survival ([5]; 50 mg/kg daily for nine days): 25% | % increase in survival ([5]; 100 mg/kg daily for nine days): 37% | % increase in survival ([5]; 164 mg/kg daily for nine days): 21% | % increase in survival ([5]; 196 mg/kg daily for nine days): 52% | % increase in survival ([5]; 200 mg/kg daily for nine days): 67% | % increase in survival ([5]; 235 mg/kg daily for nine days): 39% | % increase in survival ([5]; 245 mg/kg daily for nine days): 45% and 68% | % increase in survival ([5]; 307 mg/kg daily for nine days): 67% and 76% | % increase in survival ([5]; 336 mg/kg daily for nine days): 55% | % increase in survival ([5]; 384 mg/kg daily for nine days): 62% and 85% | % increase in survival ([5]; 400 mg/kg daily for nine days): 67% | % increase in survival ([5]; 480 mg/kg daily for nine days): 106% and 87% and 67% | % increase in survival ([5]; 600 mg/kg daily for nine days): 54% and 64% | increase in survival ([6]; 200 mg/kg): 24-25% | increase in survival ([6]; 400 mg/kg): 41% | IC50 ([7]; CDP to dCDP, 40 min at 30° C, pH 7.5, enzyme from Novikoff hepatoma, read-out: ID50 (inhibitory dose which inhibits ribonucleotide reductase by 50%)): 30 µM | Inhibitory Potency for ribonucleotide reductase ([7]; relative to hydroxyurea, given an arbitrary value of 1.0): 17 | survivors ([8]; 200 mg/kg): 4 survivors | % increase in survival time ([8]; 225 mg/kg): 65% | % increase in survival time ([9]; 250 mg/kg): 32% | % increase in survival time ([9]; 500 mg/kg): 70% | ILS at 600 mg/kg [10]: 103 ± 15% | tumor inhibition ([11]; 200 mg/kg every fourth day): 48% | tumor inhibition ([11]; 400 mg/kg every fourth day): 14% | tumor inhibition ([11]; 800 mg/kg every fourth day): 0% | activity against CX-1 colon xenograft (in words) ([11]; every fourth day): active | inhibition ([12]; 300 mg/kg): 52% | inhibition ([12]; 600 mg/kg): 11% | % Prolongation ([13]; 200 mg/kg): 51% | % Prolongation ([13]; 225 mg/kg): 89% | % increase in survival time ([14]; 100 mg/kg): 25% | % increase in survival time ([14]; 300 mg/kg): 56% | % increase in survival time ([14]; 453 mg/kg): 125% | % increase in survival time ([14]; 500 mg/kg): 84% | % increase in survival time ([14]; 543 mg/kg): 77% | % increase in survival time ([14]; 600 mg/kg): 94% and 103% | % increase in survival time ([14]; 643 mg/kg): 65% | % tumor inhibition ([15]; 200 mg/kg): 14% | % tumor inhibition ([15]; 400 mg/kg): 31-58%

Nc1cccc(C(=O)NO)c1 [3-Aminobenzohydroxamic acid]
inhibition of / selectivity against DNA synthesis (in words) [16]: completely inhibiting DNA synthesis | depression of RNA and protein synthesis [17]: 50%
